Assay results: patent US20190284176A1, “COMPOSITIONS AND METHODS FOR TREATING CARDIOMYOPATHY” (CASE WESTERN RESERVE UINVERSITY, priority 2018, published 2019)
“Also recorded” adds a separate entry of the source.

Key:
CCR2 [1] = target: T1, CCR2 (Mus musculus, UniProt P51683); experiment: RS-504393 CCR2 blockade in early-phase TAC pressure overload hypertrophy; format: in vivo; settings: for cardiac macrophage populations / numbers: before and after 1-wk TAC, 2 mg/kg twice daily oral gavage, FACS (FIG. 7), 2 mg/kg
T1 construct: tissue Jackson laboratory (mice); host or cells: whole animal: WT C57BL/6J mice; CCR2 on circulating classic monocytes / infiltrating macrophages
T1 sequence (P51683 whole entry): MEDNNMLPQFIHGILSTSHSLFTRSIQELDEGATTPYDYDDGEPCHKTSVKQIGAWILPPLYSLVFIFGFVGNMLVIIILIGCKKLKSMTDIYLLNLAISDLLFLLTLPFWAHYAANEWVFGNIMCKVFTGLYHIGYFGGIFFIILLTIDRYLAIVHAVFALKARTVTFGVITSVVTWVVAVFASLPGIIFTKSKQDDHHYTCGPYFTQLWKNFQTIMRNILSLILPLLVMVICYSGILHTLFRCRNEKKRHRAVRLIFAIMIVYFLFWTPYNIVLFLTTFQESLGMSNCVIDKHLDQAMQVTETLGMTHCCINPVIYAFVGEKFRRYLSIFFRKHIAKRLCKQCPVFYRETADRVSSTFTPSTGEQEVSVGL
Experimental: (§1) Macrophage depletion was achieved by injection (i.v.) of Clodronate liposomes at 500 ug/kg on every other day, starting from 1-day before or 14-day after cardiac surgery as indicated in specific experiments. PBS-containing liposomes were used as vehicle control (Veh). Clodronate liposomes and control liposomes were obtained from the nonprofit Consortium Foundation Clodronate Liposomes. To inhibit monocyte trafficking in vivo, RS-504393 was dissolved in DMSO, diluted 1:20 in PBS and administrated at 2 mg/kg twice daily by oral gavage, starting from 1-3 day before or 14-day after cardiac surgery as indicated in specific experiments. PBS with 5% DMSO was used as vehicle control.
Transverse aortic constriction (TAC) model and echocardiography were performed as described previously. Mice were anaesthetized by ketamine xylazine cocktail (100 uL i.p.) for TAC surgery to reduce aorta diameter to 27-gauge. Buprenorphine was administrated daily (i.p.) for first 5-days post-TAC. Blood pressure gradient across ligation site was confirmed by Doppler echography. For echocardiography, mice were anaesthetized by inhalation of 1% isoflurane vaporized in 100% oxygen. LV function was recorded at parasternal short axis view in B-mode and M-mode on a VEVO 770 High-Resolution In Vivo Micro-Imaging System (VisualSonics). ECHO data were recorded at steady heart rate above 500 bpm. LV function was calculated as ejection fraction (EF) or fractional shortening (FS).
Peritoneal macrophages were collected as described previously. Cardiac macrophages were gated from whole heart cells using surface antibodies (CD45+CD11b+F4/80+Ly6G-CD64+). Mouse heart is perfused, excised, minced, digested with Type I collagenase, mechanically disrupted and filtered through 70 μm cell strainer to get single cell suspension. Cells are collected by centrifugation, subjected to live-death dye and surface antibody staining, and analyzed by flow cytometry. Cells were also sorted by flow cytometry to collect cardiac macrophages. […] After RBC lysis, cells were stained with surface antibodies and analyzed by FACS. […]

CCR2 [2] = target: T1, CCR2; experiment: RS-504393 administration from day 14 post-TAC in established pressure overload hypertrophy; format: in vivo; settings: established POH
Experimental: as §1
Transverse aortic constriction (TAC) model and echocardiography were performed as described previously. […] LV function was recorded at parasternal short axis view in B-mode and M-mode on a VEVO 770 High-Resolution In Vivo Micro-Imaging System (VisualSonics). ECHO data were recorded at steady heart rate above 500 bpm. LV function was calculated as ejection fraction (EF) or fractional shortening (FS).
Tissue samples were homogenized in QIAzol lysis reagent (Qiagen, 79306) with a TissueLyser (Qiagen). […] Quantitative real-time PCR (qPCR) was performed with either the TaqMan method (Roche Universal ProbeLibrary System) or the SYBR green method on a ViiA 7 Real-Time PCR System (Applied Biosystems). […]

## Cc1ccc2c(c1)C1(CCN(CCc3nc(-c4ccccc4)oc3C)CC1)OC(=O)N2 [RS-504393]
CCR2 [1]
  cardiac macrophage populations / numbers: no effect
CCR2 [1]; listed as RS
  cardiac macrophage populations / numbers: no impact
CCR2 [1]; before and after 1 wk post-TAC, echocardiography (FIG. 3A), listed as RS
  cardiac function / POH: no effect; also recorded: no impact
CCR2 [2]; RS oral administration 2 wk after TAC (FIG. 16)
  cardiac hypertrophy: without affecting cardiac hypertrophy
CCR2 [2]; RS oral administration 2 wk after TAC, to 6-week post-TAC (FIG. 16)
  cardiac function (LV function by echocardiography): preserved cardiac function
